For 18 compounds, Activity and inhibition results are on record in ChEMBL document CHEMBL4837259, “Comprehensive Approach of 19F Nuclear Magnetic Resonance, Enzymatic, and In Silico Methods for Site-Specific Hit Selection and Validation of Fragment Molecules that Inhibit Methionine γ-Lyase Activity” (J Med Chem, 2021).

SMILES strings stand for the structures. The source made the active and inactive calls. The rule behind the calls is not given here.

In experiment [1] the test system is Fusobacterium nucleatum. Nature of the experiment: Inhibition of Fusobacterium nucleatum ATCC 25586 recombinant MGL Y111F mutant expressed in Escherichia coli BL21 (DE3) assessed as decrease in signal intensity by measuring recovery ratio by 19F NMR based competition assay relative to wild type. The arrangement: concentration or dose not given beside the values.

For experiment [2], the system named is Fusobacterium nucleatum. In words: Inhibition of Fusobacterium nucleatum ATCC 25586 recombinant MGL R373A mutant expressed in Escherichia coli BL21 (DE3) assessed as decrease in signal intensity by measuring recovery ratio by 19F NMR based competition assay relative to wild type. The arrangement: scale not given: the % may be the effect or the level left.
Experiment [3] has as its system Fusobacterium nucleatum. Nature of the experiment: Inhibition of Fusobacterium nucleatum ATCC 25586 recombinant MGL R58K mutant expressed in Escherichia coli BL21 (DE3) assessed as decrease in signal intensity by measuring recovery ratio by 19F NMR based competition assay relative to wild type. More on the design: scale not given: the % may be the effect or the level left.

The subject of experiment [4] is Fusobacterium nucleatum. Nature of the experiment: Inhibition of Fusobacterium nucleatum ATCC 25586 recombinant MGL K238A mutant expressed in Escherichia coli BL21 (DE3) assessed as decrease in signal intensity by measuring recovery ratio by 19F NMR based competition assay relative to wild type. The arrangement: concentration or dose not given beside the values.
In experiment [5] the target is T1, L-methionine gamma-lyase (Fusobacterium nucleatum subsp. nucleatum) (UniProt Q8RDT4).
T1 sequence (whole entry): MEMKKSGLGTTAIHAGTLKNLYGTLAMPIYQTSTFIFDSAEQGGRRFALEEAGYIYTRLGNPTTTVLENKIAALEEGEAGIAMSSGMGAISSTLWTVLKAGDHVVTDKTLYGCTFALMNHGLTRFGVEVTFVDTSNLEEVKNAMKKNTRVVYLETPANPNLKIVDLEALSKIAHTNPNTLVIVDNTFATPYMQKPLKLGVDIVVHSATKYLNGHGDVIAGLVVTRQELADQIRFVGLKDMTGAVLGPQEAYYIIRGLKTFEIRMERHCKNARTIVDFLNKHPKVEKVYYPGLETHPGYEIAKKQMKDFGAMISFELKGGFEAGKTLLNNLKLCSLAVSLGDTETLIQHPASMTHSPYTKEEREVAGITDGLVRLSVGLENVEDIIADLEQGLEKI
Nature of the experiment: Inhibition of Fusobacterium nucleatum ATCC 25586 recombinant wild type MGL expressed in Escherichia coli BL21 (DE3) assessed as formation of 2-ketobutyrate using L-methionine as substrate by enzymatic assay. The arrangement: concentration or dose not given beside the values. Conditions: concentration not given here.

In experiment [6] the target is T1, L-methionine gamma-lyase (Fusobacterium nucleatum subsp. nucleatum). Nature of the experiment: Inhibition of Fusobacterium nucleatum ATCC 25586 recombinant wild type MGL expressed in Escherichia coli BL21 (DE3) assessed as decrease in signal intensity by 19F NMR based competition assay relative to control. More on the design: concentration or dose not given beside the values.

Experiment [7] has as its system Fusobacterium nucleatum. In words: Inhibition of Fusobacterium nucleatum ATCC 25586 recombinant MGL Y56F mutant expressed in Escherichia coli BL21 (DE3) assessed as decrease in signal intensity by measuring recovery ratio by 19F NMR based competition assay relative to wild type. The arrangement: concentration or dose not given beside the values.
Experiment [8] deals with Fusobacterium nucleatum. In words: Inhibition of Fusobacterium nucleatum ATCC 25586 recombinant MGL C113S mutant expressed in Escherichia coli BL21 (DE3) assessed as decrease in signal intensity by measuring recovery ratio by 19F NMR based competition assay relative to wild type. More on the design: scale not given: the % may be the effect or the level left.
For experiment [9], the system named is Fusobacterium nucleatum. In words: Inhibition of Fusobacterium nucleatum ATCC 25586 recombinant MGL R58A mutant expressed in Escherichia coli BL21 (DE3) assessed as decrease in signal intensity by measuring recovery ratio by 19F NMR based competition assay relative to wild type. More on the design: scale not given: the % may be the effect or the level left.

The subject of experiment [10] is Fusobacterium nucleatum. In words: Inhibition of Fusobacterium nucleatum ATCC 25586 recombinant MGL R373K mutant expressed in Escherichia coli BL21 (DE3) assessed as decrease in signal intensity by measuring recovery ratio by 19F NMR based competition assay relative to wild type. The arrangement: concentration or dose not given beside the values.

For `CC(C)(C)OC(=O)N1CCC(CN)(Cc2ccccc2C(F)(F)F)CC1`, the result in the experiment on Fusobacterium nucleatum [1], in the experiment on Fusobacterium nucleatum [2], in the experiment with Fusobacterium nucleatum [4] and in the experiment with Fusobacterium nucleatum [10] was Active. Besides, the Activity with Fusobacterium nucleatum [3] is 80%; in experiment [6], 85%; in the experiment with Fusobacterium nucleatum [7], 80%; in the experiment on Fusobacterium nucleatum [8] it was 80%; with Fusobacterium nucleatum [9], 50%. In addition, the inhibition (commonly the drop in the measured response relative to a control, in per cent) in [5] was 56.5%.

For `CC(C)(C)OC(=O)N[C@H]1CC[C@H](N2Cc3cccc(F)c3C2=O)CC1`, the outcome in the experiment with Fusobacterium nucleatum [1], in the experiment on Fusobacterium nucleatum [2], with Fusobacterium nucleatum [3], with Fusobacterium nucleatum [4], with Fusobacterium nucleatum [8] and in the experiment with Fusobacterium nucleatum [9] was Active. Also, in the experiment with Fusobacterium nucleatum [10], the result was Active. Besides, in experiment [5], the inhibition was determined as 53.7%. For the same compound, the Activity in [6] stood at 100%; with Fusobacterium nucleatum [7], 50%.

In the case of `O=C(O)c1ccnc(OC(F)(F)F)c1`, the Activity with Fusobacterium nucleatum [1] amounted to 50%; with Fusobacterium nucleatum [2], 80%; in the experiment with Fusobacterium nucleatum [3] it was 80%; in the experiment with Fusobacterium nucleatum [4], 50%; in experiment [6], 76%; with Fusobacterium nucleatum [7], 80%. For the same compound, the figures for the Activity in the experiment on Fusobacterium nucleatum [9] and in the experiment with Fusobacterium nucleatum [10] were 80% and 50%, respectively. Further, in experiment [5], the inhibition is 22.3%. Moreover, the outcome in the experiment with Fusobacterium nucleatum [8] was Active.

On to `CC(C)(Cc1cccc(C(F)(F)F)c1)C(=O)O`, for which the Activity in the experiment on Fusobacterium nucleatum [1] was found to be 50%; with Fusobacterium nucleatum [2], 80%; in the experiment with Fusobacterium nucleatum [3], 80%; with Fusobacterium nucleatum [4], 50%; in experiment [6], 64%; in the experiment on Fusobacterium nucleatum [7], 80%. For the same compound, the Activity with Fusobacterium nucleatum [9] was 80%. In experiment [5], the inhibition amounted to 27.5%. Moreover, the outcome in the experiment on Fusobacterium nucleatum [8] and in the experiment with Fusobacterium nucleatum [10] was Active.

Turning to `O=C(O)c1cc(C(F)(F)F)nn1Cc1ccccc1`, the Activity with Fusobacterium nucleatum [1] was 50%; in the experiment with Fusobacterium nucleatum [2], 50%; with Fusobacterium nucleatum [3], 80%; in experiment [6] it was 41%; in the experiment with Fusobacterium nucleatum [7], 50%; with Fusobacterium nucleatum [9], 80%. Further, the Activity with Fusobacterium nucleatum [10] came to 50%. The result with Fusobacterium nucleatum [4] was Active. For the same compound, the inhibition in [5] came out at 14.5%. For the same compound, the result in the experiment with Fusobacterium nucleatum [8] was inactive.

In the case of `O=C(O)c1cnn(-c2ccc(F)cc2)c1`, the Activity in the experiment with Fusobacterium nucleatum [1] amounted to 80%; in the experiment on Fusobacterium nucleatum [2], 80%; in the experiment on Fusobacterium nucleatum [3], 50%; with Fusobacterium nucleatum [4], 50%; in experiment [6], 69%; with Fusobacterium nucleatum [7], 80%. In addition, the Activity in the experiment with Fusobacterium nucleatum [9] came to 80%. In addition, the inhibition in experiment [5] is -0.6%. Moreover, the outcome in the experiment with Fusobacterium nucleatum [8] and in the experiment on Fusobacterium nucleatum [10] was Active.

Turning to `CC(C)(C)OC(=O)N[C@H]1CC[C@H](N2Cc3ccc(F)cc3C2=O)CC1`, the outcome in the experiment with Fusobacterium nucleatum [1], in the experiment on Fusobacterium nucleatum [2], with Fusobacterium nucleatum [4], in the experiment on Fusobacterium nucleatum [9] and in the experiment with Fusobacterium nucleatum [10] was Active. The Activity stood at 50% with Fusobacterium nucleatum [3], 70% in [6], 50% in the experiment on Fusobacterium nucleatum [7] and 50% in the experiment with Fusobacterium nucleatum [8]. Besides, the inhibition in experiment [5] was -1.2%.

Consider `CC(C)(CC(=O)O)c1ccc(C(F)(F)F)cc1`, for which the Activity was found to be 80% with Fusobacterium nucleatum [1]; 50% in the experiment with Fusobacterium nucleatum [2]; 80% in the experiment with Fusobacterium nucleatum [3]; 50% in the experiment with Fusobacterium nucleatum [4]; 62% in experiment [6]; 80% in the experiment on Fusobacterium nucleatum [7]. The Activity in the experiment with Fusobacterium nucleatum [9] was 80%. Moreover, the inhibition in [5] was determined as 11.3%. Also, the result in the experiment with Fusobacterium nucleatum [8] and in the experiment on Fusobacterium nucleatum [10] was Active.

Turning to `CC(C)(C)OC(=O)N1CCC(CN)(Cc2ccccc2F)CC1`, the outcome with Fusobacterium nucleatum [1], in the experiment on Fusobacterium nucleatum [2] and with Fusobacterium nucleatum [4] was inactive. The Activity in the experiment with Fusobacterium nucleatum [3] was found to be 50%; in experiment [6] it was 63%; in the experiment on Fusobacterium nucleatum [7] it was 80%; in the experiment with Fusobacterium nucleatum [8], 80%. In addition, the inhibition in experiment [5] was 30.1%. The outcome in the experiment with Fusobacterium nucleatum [9] and in the experiment with Fusobacterium nucleatum [10] was Active.

In the case of `O=C(O)c1ccc(OCC(F)(F)F)cn1`, the Activity in the experiment with Fusobacterium nucleatum [1] came to 80%; in the experiment on Fusobacterium nucleatum [2] it was 80%; with Fusobacterium nucleatum [3], 80%; in the experiment with Fusobacterium nucleatum [4] it was 50%; in experiment [6], 40%; with Fusobacterium nucleatum [7], 80%. For the same compound, the Activity in the experiment on Fusobacterium nucleatum [8] and with Fusobacterium nucleatum [9] was 80% each time. The inhibition in experiment [5] was found to be 15%. For the same compound, in the experiment with Fusobacterium nucleatum [10], the outcome was Active.

For the compound `COCCOc1ccc(C(=O)O)cc1C(F)(F)F`, the Activity turned out to be 80% in the experiment with Fusobacterium nucleatum [1]; 80% in the experiment with Fusobacterium nucleatum [2]; 80% in the experiment with Fusobacterium nucleatum [3]; 67% in experiment [6]; 80% in the experiment with Fusobacterium nucleatum [7]; 50% in the experiment with Fusobacterium nucleatum [8]. Besides, the Activity was determined as 80% with Fusobacterium nucleatum [9] and 50% in the experiment with Fusobacterium nucleatum [10]. The outcome in the experiment on Fusobacterium nucleatum [4] was Active. The inhibition in experiment [5] was determined as 16.2%.

For the compound `O=C(O)c1cncc(OCC(F)(F)F)c1`, the Activity in the experiment on Fusobacterium nucleatum [1] was 50%; in the experiment on Fusobacterium nucleatum [2], 50%; with Fusobacterium nucleatum [3] it was 80%; in [6], 35%; with Fusobacterium nucleatum [7], 80%; in the experiment on Fusobacterium nucleatum [9], 80%. For the same compound, the result in the experiment with Fusobacterium nucleatum [4] and in the experiment on Fusobacterium nucleatum [10] was Active. In experiment [5], the inhibition stood at 9.1%. Moreover, the outcome in the experiment on Fusobacterium nucleatum [8] was inactive.

In the case of `O=C(O)c1cn(-c2ccc(F)cc2)cn1`, the result in the experiment on Fusobacterium nucleatum [1], in the experiment with Fusobacterium nucleatum [4], in the experiment with Fusobacterium nucleatum [7] and with Fusobacterium nucleatum [10] was Active. Besides, the Activity in the experiment with Fusobacterium nucleatum [2] was determined as 80%; with Fusobacterium nucleatum [3], 80%; in experiment [6] it was 58%; in the experiment on Fusobacterium nucleatum [8] it was 50%; with Fusobacterium nucleatum [9] it was 80%. Also, the inhibition in [5] turned out to be 6.2%.

As for `O=C(O)c1cnc(OCC(F)(F)F)cn1`, the result in the experiment with Fusobacterium nucleatum [1], with Fusobacterium nucleatum [8] and with Fusobacterium nucleatum [10] was Active. Besides, the Activity came to 80% in the experiment on Fusobacterium nucleatum [2]; 80% in the experiment on Fusobacterium nucleatum [3]; 50% in the experiment on Fusobacterium nucleatum [4]; 49% in experiment [6]; 80% with Fusobacterium nucleatum [7]; 80% with Fusobacterium nucleatum [9]. Moreover, in experiment [5], the inhibition is 4.4%.

In the case of `CCOC(=O)c1nc(-c2ccccc2F)no1`, the Activity in the experiment with Fusobacterium nucleatum [1] was determined as 50%; in the experiment on Fusobacterium nucleatum [2] it was 80%; with Fusobacterium nucleatum [3], 50%; in [6], 82%; in the experiment on Fusobacterium nucleatum [7], 80%; with Fusobacterium nucleatum [9] it was 50%. The outcome in the experiment on Fusobacterium nucleatum [4], with Fusobacterium nucleatum [8] and with Fusobacterium nucleatum [10] was Active. Further, in experiment [5], the inhibition turned out to be 13.3%.

In the case of `CC(C)(C)OC(=O)N1CCC(CN)(Cc2ccc(C(F)(F)F)cc2)CC1`, the outcome in the experiment on Fusobacterium nucleatum [1], in the experiment with Fusobacterium nucleatum [2], with Fusobacterium nucleatum [4] and with Fusobacterium nucleatum [10] was Active. Further, the Activity in the experiment on Fusobacterium nucleatum [3] stood at 50%; in experiment [6] it was 78%; in the experiment on Fusobacterium nucleatum [7], 80%; in the experiment with Fusobacterium nucleatum [8], 50%; with Fusobacterium nucleatum [9] it was 50%. Besides, the inhibition in [5] amounted to 78.3%.

For the compound `CC(C)(CC(=O)O)c1ccc(F)cc1`, the Activity in the experiment with Fusobacterium nucleatum [1] was found to be 80%; in the experiment on Fusobacterium nucleatum [2] it was 80%; in the experiment with Fusobacterium nucleatum [3] it was 80%; in the experiment on Fusobacterium nucleatum [4], 50%; in experiment [6], 57%; in the experiment with Fusobacterium nucleatum [7] it was 80%. For the same compound, the Activity in the experiment with Fusobacterium nucleatum [9] is 80%. Further, the inhibition in experiment [5] is -3.3%. In addition, the result with Fusobacterium nucleatum [8] and in the experiment on Fusobacterium nucleatum [10] was inactive.

For the compound `Fc1cccc(-c2nnc3ccc(Br)cn23)c1`, the inhibition in experiment [5] was determined as 7.2%. In addition, in [6], the Activity is 89%.
